Experimental data as given in ChEMBL document CHEMBL1201862, “PubChem BioAssay data set” (2004).
Blank lines part the entries; values can stand above or below the compound they belong to. The source made the active and inactive calls.

Assays:
[1] = loss of viability in HepG2 cells – cell-based, CellTiter-Glo, cherry-picked, cytotoxicity control for Shn3 inhibitor project, dose response (AID 624134); assay type: functional
[2] = blockade of melanocortin 4 receptor signaling – cell-based, plate reader, cherry pick, counter-screen for LGR2 antagonist project, dose response (AID 743444); assay type: functional;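 also: transfected HEK 293 cells stimulated with alpha-MSH peptide; potency of inhibitors of the alpha-MSH evoked signal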
[3] = biological target: 1-phosphatidylinositol 4,5-bisphosphate phosphodiesterase beta-3 (Homo sapiens, UniProt Q01970); test: Fluorescence-based biochemical high throughput dose response assay to identify inhibitors of phospholipase C isozymes (PLC-B3).
[4] = biological target: T1, Serine/threonine-protein phosphatase (Homo sapiens, UniProt Q9BPW0); test: inhibition of protein phosphatase 5 activity – biochemical, fluorescence, dose response (AID 2395)
T1 sequence (Q9BPW0 whole entry): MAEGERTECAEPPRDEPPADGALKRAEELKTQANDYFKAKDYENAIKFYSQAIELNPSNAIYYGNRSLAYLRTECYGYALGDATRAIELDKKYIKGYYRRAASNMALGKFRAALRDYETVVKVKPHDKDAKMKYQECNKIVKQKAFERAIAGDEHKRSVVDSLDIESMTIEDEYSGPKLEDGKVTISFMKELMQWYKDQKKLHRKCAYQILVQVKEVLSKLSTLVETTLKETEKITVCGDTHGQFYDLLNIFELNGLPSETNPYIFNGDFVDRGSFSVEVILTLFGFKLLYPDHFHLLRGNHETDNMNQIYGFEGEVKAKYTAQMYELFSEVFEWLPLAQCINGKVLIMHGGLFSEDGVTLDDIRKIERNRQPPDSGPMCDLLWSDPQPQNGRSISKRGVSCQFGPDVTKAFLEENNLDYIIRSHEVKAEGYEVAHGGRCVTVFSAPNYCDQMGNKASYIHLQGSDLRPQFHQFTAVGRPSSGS

[5] = biological target: T2, Apoptotic protease-activating factor 1 (Homo sapiens, UniProt O14727); assay type: functional
T2 sequence (O14727 whole entry): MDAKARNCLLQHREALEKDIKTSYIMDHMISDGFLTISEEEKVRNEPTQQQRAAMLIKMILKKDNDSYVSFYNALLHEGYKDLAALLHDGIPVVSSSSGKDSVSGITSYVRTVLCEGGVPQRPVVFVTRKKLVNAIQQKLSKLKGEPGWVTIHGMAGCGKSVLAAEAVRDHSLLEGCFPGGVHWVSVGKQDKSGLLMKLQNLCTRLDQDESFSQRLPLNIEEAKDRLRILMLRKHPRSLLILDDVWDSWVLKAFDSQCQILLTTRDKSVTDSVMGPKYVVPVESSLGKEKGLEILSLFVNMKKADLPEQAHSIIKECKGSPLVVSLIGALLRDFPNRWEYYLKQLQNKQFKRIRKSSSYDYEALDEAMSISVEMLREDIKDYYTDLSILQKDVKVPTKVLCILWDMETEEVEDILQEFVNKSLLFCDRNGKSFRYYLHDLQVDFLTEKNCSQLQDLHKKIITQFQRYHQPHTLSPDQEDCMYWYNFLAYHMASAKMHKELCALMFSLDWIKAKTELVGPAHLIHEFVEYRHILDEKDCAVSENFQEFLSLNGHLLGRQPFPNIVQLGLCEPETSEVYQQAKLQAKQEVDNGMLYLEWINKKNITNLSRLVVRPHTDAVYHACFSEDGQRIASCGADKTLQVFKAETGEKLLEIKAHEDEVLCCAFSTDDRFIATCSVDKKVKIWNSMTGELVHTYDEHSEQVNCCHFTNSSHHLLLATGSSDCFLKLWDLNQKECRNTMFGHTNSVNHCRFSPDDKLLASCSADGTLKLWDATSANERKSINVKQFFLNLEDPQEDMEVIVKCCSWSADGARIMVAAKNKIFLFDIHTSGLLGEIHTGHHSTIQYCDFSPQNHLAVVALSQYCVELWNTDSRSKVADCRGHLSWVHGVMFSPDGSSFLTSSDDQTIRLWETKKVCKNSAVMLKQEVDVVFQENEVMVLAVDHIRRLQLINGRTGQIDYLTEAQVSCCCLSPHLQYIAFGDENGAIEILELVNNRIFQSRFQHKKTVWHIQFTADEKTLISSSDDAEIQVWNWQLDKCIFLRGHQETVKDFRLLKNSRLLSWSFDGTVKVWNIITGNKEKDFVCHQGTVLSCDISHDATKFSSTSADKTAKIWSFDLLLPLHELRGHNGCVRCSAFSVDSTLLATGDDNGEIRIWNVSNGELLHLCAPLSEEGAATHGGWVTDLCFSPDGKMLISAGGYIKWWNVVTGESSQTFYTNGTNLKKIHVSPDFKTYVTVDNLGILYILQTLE

[6] = biological target: Ribosomal protein S6 kinase alpha-3 (Homo sapiens, UniProt P51812); assay type: functional;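 also: measured within a kinome-wide profiling panel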
[7] = biological target: Ribosomal protein S6 kinase beta-1 (Homo sapiens, UniProt P23443); assay type: functional;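 also: measured as one member of a kinome-wide profiling panel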
[8] = biological target: Calcium/calmodulin-dependent protein kinase type II subunit gamma (Homo sapiens, UniProt Q13555); assay type: functional
[9] = biological target: Serine/threonine-protein kinase D3 (Homo sapiens, UniProt O94806); assay type: functional;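 also: determined within a kinase panel screen, with PRKCN as the panel member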
[10] = biological target: Fibroblast growth factor receptor 1 (Homo sapiens, UniProt P11362); assay type: functional
[11] = biological target: Tyrosine-protein kinase Lyn (Homo sapiens, UniProt P07948); assay type: functional;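 also: lyn as one member of a kinase panel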
[12] = biological target: Serine/threonine-protein kinase TAO1 (Homo sapiens, UniProt Q7L7X3); assay type: functional
[13] = biological target: High affinity nerve growth factor receptor (Homo sapiens, UniProt P04629); assay type: functional;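 also: NTRK1 tested as one member of a kinome-wide profiling panel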
[14] = biological target: MAP kinase-activated protein kinase 3 (Homo sapiens, UniProt Q16644); assay type: functional;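 also: value comes from a kinome-wide profiling panel in which MAPKAPK3 is one of the panel members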
[15] = biological target: MAP kinase-interacting serine/threonine-protein kinase 2 (Homo sapiens, UniProt Q9HBH9); assay type: functional
[16] = biological target: Calcium/calmodulin-dependent protein kinase type II subunit beta (Homo sapiens, UniProt Q13554); assay type: functional
[17] = biological target: Insulin-like growth factor 1 receptor (Homo sapiens, UniProt P08069); test: Navigating the Kinome. Panel member name: IGF1R; assay type: functional
[18] = biological target: cAMP-dependent protein kinase catalytic subunit PRKX (Homo sapiens, UniProt P51817); assay type: functional
[19] = biological target: Serine/threonine-protein kinase PLK1 (Homo sapiens, UniProt P53350); assay type: functional;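 also: PLK1 measured as one member of a kinome-wide profiling panel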
[20] = biological target: Glycogen synthase kinase-3 beta (Homo sapiens, UniProt P49841); assay type: functional;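 also: value comes from a broad kinome profiling panel, with GSK3B as the panel member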
[21] = biological target: Dual specificity protein kinase CLK4 (Homo sapiens, UniProt Q9HAZ1); assay type: functional
Sequence of Dual specificity protein kinase CLK4 (Q9HAZ1 whole entry): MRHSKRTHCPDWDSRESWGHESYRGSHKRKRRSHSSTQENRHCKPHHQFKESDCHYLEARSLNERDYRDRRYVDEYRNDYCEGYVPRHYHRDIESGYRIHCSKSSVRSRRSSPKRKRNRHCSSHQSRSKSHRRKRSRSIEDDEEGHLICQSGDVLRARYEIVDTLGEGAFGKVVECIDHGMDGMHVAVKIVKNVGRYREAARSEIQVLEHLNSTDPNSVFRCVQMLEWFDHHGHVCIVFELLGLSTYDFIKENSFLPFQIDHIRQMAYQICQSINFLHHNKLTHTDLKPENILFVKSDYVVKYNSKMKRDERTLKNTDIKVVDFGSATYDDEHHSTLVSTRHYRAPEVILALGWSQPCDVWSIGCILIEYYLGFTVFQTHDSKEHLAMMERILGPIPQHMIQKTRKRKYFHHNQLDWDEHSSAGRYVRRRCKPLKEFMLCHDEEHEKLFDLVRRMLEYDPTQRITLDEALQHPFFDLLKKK

Sequence of MAP kinase-interacting serine/threonine-protein kinase 2 (Q9HBH9 whole entry): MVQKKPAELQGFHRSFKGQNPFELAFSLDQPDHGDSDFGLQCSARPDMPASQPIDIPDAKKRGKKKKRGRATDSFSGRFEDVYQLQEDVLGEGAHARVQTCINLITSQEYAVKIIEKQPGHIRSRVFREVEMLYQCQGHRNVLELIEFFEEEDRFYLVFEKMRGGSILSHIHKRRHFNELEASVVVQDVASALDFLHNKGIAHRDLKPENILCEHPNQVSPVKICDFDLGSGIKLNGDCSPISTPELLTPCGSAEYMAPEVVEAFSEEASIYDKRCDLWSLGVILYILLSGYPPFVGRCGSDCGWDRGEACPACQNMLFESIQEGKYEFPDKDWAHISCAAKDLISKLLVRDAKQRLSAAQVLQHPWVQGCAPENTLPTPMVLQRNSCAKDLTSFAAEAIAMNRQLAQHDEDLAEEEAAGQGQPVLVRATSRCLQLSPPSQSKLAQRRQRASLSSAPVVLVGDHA
Sequence of Calcium/calmodulin-dependent protein kinase type II subunit gamma (Q13555 whole entry): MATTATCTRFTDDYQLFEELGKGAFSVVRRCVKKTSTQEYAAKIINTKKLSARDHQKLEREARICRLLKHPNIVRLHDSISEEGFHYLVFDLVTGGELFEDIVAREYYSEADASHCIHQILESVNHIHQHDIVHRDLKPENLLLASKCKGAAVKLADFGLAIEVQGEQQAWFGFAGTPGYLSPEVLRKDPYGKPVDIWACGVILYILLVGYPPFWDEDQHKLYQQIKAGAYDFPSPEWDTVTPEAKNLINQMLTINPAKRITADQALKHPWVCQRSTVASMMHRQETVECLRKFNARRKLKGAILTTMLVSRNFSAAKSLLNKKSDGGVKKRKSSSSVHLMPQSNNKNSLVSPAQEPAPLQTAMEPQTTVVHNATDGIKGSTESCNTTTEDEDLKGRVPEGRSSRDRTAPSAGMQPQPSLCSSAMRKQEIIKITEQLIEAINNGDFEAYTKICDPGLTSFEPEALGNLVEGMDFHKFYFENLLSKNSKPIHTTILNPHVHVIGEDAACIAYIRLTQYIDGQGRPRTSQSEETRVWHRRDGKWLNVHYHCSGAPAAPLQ
Sequence of Fibroblast growth factor receptor 1 (P11362 whole entry): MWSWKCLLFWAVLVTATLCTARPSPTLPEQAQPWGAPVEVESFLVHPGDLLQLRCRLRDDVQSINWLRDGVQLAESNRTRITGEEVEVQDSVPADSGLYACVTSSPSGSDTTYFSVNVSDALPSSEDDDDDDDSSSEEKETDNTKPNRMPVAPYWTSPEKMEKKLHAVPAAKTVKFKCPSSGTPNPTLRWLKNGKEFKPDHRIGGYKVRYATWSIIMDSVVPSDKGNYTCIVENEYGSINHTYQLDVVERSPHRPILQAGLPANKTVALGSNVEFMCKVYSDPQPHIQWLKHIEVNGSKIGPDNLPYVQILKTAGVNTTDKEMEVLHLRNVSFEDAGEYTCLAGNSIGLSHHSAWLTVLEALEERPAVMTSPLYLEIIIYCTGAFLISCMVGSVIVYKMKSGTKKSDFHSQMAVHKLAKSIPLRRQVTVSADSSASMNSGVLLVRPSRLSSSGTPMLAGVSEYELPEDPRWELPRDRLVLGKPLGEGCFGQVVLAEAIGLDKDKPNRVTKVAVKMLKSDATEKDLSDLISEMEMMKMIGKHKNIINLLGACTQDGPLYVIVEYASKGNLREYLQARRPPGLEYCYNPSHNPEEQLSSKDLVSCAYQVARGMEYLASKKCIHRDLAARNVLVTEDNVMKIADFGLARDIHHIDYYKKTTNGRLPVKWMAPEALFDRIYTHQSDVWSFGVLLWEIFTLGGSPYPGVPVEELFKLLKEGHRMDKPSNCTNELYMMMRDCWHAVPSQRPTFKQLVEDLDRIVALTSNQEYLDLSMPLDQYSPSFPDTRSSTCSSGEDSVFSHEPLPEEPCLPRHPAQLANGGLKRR
Sequence of Ribosomal protein S6 kinase alpha-3 (P51812 whole entry): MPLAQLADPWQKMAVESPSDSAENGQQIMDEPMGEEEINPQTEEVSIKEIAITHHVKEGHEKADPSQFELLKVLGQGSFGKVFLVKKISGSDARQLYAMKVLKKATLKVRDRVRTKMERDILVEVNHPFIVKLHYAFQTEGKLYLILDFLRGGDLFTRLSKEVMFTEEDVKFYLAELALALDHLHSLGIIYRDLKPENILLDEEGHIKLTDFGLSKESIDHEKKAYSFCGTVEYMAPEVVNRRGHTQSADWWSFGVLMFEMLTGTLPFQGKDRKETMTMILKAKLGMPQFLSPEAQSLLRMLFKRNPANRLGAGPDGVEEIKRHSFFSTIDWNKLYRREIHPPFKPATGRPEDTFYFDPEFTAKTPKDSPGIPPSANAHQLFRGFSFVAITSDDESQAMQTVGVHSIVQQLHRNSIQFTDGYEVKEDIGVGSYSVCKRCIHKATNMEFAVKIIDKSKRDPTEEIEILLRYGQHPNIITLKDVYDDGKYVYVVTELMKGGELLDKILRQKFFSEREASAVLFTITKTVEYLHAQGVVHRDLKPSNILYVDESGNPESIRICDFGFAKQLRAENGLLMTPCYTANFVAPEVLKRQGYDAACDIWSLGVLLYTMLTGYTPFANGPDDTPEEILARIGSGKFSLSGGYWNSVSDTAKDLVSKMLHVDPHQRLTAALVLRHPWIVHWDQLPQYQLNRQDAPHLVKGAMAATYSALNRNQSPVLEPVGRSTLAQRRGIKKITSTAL
Sequence of Ribosomal protein S6 kinase beta-1 (P23443 whole entry): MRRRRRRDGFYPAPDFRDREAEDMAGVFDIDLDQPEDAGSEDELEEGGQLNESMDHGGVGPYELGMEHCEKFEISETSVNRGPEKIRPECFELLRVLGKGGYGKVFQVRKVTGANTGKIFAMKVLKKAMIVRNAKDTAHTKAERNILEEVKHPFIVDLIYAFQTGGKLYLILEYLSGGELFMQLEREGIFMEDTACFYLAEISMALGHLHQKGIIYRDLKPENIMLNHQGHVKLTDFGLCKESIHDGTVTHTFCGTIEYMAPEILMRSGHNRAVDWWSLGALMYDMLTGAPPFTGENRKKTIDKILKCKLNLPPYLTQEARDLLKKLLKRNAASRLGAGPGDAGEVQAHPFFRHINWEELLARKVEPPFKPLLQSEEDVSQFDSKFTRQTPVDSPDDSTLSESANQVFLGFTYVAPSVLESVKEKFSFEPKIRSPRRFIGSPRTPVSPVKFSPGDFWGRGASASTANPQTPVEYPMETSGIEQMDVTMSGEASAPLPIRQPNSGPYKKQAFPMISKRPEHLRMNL
Sequence of cAMP-dependent protein kinase catalytic subunit PRKX (P51817 whole entry): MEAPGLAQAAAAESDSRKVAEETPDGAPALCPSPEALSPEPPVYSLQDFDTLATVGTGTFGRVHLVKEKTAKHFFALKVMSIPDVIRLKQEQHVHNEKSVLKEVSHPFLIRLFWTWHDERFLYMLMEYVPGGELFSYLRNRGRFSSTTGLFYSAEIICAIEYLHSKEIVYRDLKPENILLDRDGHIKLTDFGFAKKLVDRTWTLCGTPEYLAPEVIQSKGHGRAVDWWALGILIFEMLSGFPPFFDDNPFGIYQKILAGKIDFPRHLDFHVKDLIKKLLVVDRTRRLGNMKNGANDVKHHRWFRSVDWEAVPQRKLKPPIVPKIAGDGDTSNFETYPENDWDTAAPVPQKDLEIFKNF
Sequence of MAP kinase-activated protein kinase 3 (Q16644 whole entry): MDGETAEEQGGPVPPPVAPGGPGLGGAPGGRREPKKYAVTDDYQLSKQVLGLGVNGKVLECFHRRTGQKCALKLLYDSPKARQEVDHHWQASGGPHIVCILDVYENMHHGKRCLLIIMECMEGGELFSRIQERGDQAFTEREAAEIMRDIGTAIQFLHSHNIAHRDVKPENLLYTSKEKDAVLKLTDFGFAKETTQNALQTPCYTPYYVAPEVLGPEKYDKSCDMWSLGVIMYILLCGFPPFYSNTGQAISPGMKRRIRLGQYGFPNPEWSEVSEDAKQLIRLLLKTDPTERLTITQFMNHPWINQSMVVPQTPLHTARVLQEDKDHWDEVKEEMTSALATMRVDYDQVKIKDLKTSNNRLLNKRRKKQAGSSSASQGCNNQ
Sequence of Calcium/calmodulin-dependent protein kinase type II subunit beta (Q13554 whole entry): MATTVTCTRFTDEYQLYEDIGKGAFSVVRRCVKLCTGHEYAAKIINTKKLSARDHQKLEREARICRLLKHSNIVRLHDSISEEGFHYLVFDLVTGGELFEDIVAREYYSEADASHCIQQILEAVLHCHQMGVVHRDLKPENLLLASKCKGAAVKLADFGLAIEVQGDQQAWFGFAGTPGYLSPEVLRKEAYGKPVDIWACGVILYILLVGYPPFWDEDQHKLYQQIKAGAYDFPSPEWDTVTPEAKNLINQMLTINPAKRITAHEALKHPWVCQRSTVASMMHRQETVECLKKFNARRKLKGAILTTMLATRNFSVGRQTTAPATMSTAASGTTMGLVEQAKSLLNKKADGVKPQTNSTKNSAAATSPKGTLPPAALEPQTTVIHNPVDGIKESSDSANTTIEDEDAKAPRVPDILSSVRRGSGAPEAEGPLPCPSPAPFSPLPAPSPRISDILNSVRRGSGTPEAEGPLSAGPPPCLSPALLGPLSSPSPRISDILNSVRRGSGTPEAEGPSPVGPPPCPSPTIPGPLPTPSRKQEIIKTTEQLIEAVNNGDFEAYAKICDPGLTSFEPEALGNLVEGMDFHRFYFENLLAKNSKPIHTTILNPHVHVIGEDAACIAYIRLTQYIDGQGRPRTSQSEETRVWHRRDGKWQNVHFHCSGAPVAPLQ

SMILES: CCCc1nc2c(=O)n(C)c(=O)nc-2n(C)n1
AC50 [1]: 4.96 µM (active) | AC50 [2]: 4.6 µM (active) | IC50 [3]: > 122 µM (inactive)

IC50 [4]: 19.3 µM (not active) | IC50 [5]: 28.7 µM (active)
SMILES: CC(=O)c1ccc(NC2=C(N3CCOCC3)C(=O)c3ccccc3C2=O)cc1

Ki [6]: 7.94 µM (active) | Ki [7]: > 6.31 µM (inactive) | Ki [8]: > 6.31 µM (inactive) | Ki [9]: > 10 µM (inactive) | Ki [10]: 3.98 µM (active) | Ki [11]: > 1.58 µM (inactive) | Ki [12]: > 10 µM (inactive) | Ki [13]: 0.398 µM (active) | Ki [14]: > 10 µM (inactive) | Ki [15]: > 10 µM (inactive) | Ki [16]: > 7.94 µM (inactive) | Ki [17]: > 1 µM (inactive) | Ki [18]: 1 µM (active) | Ki [19]: 0.0126 µM (active) | Ki [20]: 2 µM (active) | Ki [21]: 0.398 µM (active)
SMILES: COc1cc2ncn(-c3cc(OCc4ccccc4C(F)(F)F)c(C(N)=O)s3)c2cc1OC [GW843682X]
